Where “and” joins values, the source holds several entries; their conditions need not be identical. Equal values may be shown once. Where a name gives a salt, the structure may show the parent alone.
Tests used:
[1] = behaviour of mice after injection of compound 1; type: in vivo, mice of the BALB line; conditions: for behaviour of mice: 140 mg/kg
Description: In all cases tests were carried out on mice of the BALB line of 3-4 month age. Non-toxic doses of compounds under test varying from 60 to 400 mg/kg were used in all experiments. In the case of water-soluble compounds, aqueous solutions of the test compounds were injected intraperitoneally (i.p.), while water-insoluble compounds were introduced orally (p.o.).
The behaviour of mice to injection of compound 1 at 140 mg/kg dosage is as follows: […]

[2] = rate of oxygen consumption of mice in closed unit with optic-acoustic gas analyser MN 5130; type: in vivo, mice of the BALB line; conditions: relative to starting content
Description: In all cases tests were carried out on mice of the BALB line of 3-4 month age. […] In the case of water-soluble compounds, aqueous solutions of the test compounds were injected intraperitoneally (i.p.), while water-insoluble compounds were introduced orally (p.o.).
Rectal temperature changes (absolute magnitues in ° C.) were measured using a medicinal electrothermometer TREM-1 (Table 1). The rate of oxygen consumption was monitored by measuring concentration of oxygen in a closed testing unit with optic-acoustic gas analyser MN 5130. The data on oxygen consumption are given in percents relative to the starting content of oxygen taken as 100%. (Table 2).

For c1ccc(C2=NN=C(N3CCOCC3)SC2)cc1 [Compound 1, 2-Morpholino-5-phenyl-6H-1,3,4-thiadiazine, hydrobromide], the behaviour of mice ([1]; 15-180 minutes) was “akinesia, mio-relaxation, lack of reflexes”, the behaviour of mice ([1]; 180-360 minutes) was “restoration of motor activity” and the behaviour of mice ([1]; 5 minutes) was “decrease in motor activity, suppression of breathing”. The tremor or convulsions ([1]; non-toxic dose levels) was “not accompanied by tremor or convulsions”, the “consumption of oxygen (O2)” value ([2]; 10.0 mg/kg i.p., 0 min) was 100 ± 6.9% and the “consumption of oxygen (O2)” value ([2]; 10.0 mg/kg i.p., 10 min) was 94.0 ± 5.5%. The “consumption of oxygen (O2)” value ([2]; 10.0 mg/kg i.p., 20 min) was 87.3 ± 9.9%, the “consumption of oxygen (O2)” value ([2]; 10.0 mg/kg i.p., 30 min) was 78.2% and the “consumption of oxygen (O2)” value ([2]; 10.0 mg/kg i.p., 60 min) was 83.3 ± 18.1%. The “consumption of oxygen (O2)” value ([2]; 10.0 mg/kg i.p., 90 min) was 75.9 ± 19.3%, the “consumption of oxygen (O2)” value ([2]; 10.0 mg/kg i.p., 120 min) was 95.6 ± 10.8% and the “consumption of oxygen (O2)” value ([2]; 10.0 mg/kg i.p., 180 min) was 80.6 ± 9.9%. For the same compound, the “consumption of oxygen (O2)” value ([2]; 10.0 mg/kg i.p., 240 min) was 92.6 ± 3.9%, the “consumption of oxygen (O2)” value ([2]; 10.0 mg/kg i.p., 300 min) was 109.7 ± 8.8% and the “consumption of oxygen (O2)” value ([2]; 35.0 mg/kg i.p., 0 min) was 100 ± 7.4%. For the same compound, the “consumption of oxygen (O2)” value ([2]; 35.0 mg/kg i.p., 10 min) was 86.3 ± 13.1%, the “consumption of oxygen (O2)” value ([2]; 35.0 mg/kg i.p., 20 min) was 73.6 ± 2.6% and the “consumption of oxygen (O2)” value ([2]; 35.0 mg/kg i.p., 30 min) was 68.4%. The “consumption of oxygen (O2)” value ([2]; 35.0 mg/kg i.p., 60 min) was 70.4 ± 7.1%, the “consumption of oxygen (O2)” value ([2]; 35.0 mg/kg i.p., 90 min) was 72.1 ± 10.4% and the “consumption of oxygen (O2)” value ([2]; 35.0 mg/kg i.p., 120 min) was 68.4 ± 11.2%. For the same compound, the “consumption of oxygen (O2)” value ([2]; 35.0 mg/kg i.p., 180 min) was 78.4 ± 9.3%, the “consumption of oxygen (O2)” value ([2]; 35.0 mg/kg i.p., 240 min) was 97.4 ± 5.6% and the “consumption of oxygen (O2)” value ([2]; 35.0 mg/kg i.p., 300 min) was 85.1 ± 3.8%. For the same compound, the “consumption of oxygen (O2)” value ([2]; 140.0 mg/kg i.p., 0 min) was 100 ± 21.7%, the “consumption of oxygen (O2)” value ([2]; 140.0 mg/kg i.p., 10 min) was 26.3 ± 6.8% and the “consumption of oxygen (O2)” value ([2]; 140.0 mg/kg i.p., 20 min) was 46.8 ± 4.7%. For the same compound, the “consumption of oxygen (O2)” value ([2]; 140.0 mg/kg i.p., 30 min) was 32.2%, the “consumption of oxygen (O2)” value ([2]; 140.0 mg/kg i.p., 60 min) was 49.3 ± 9.8% and the “consumption of oxygen (O2)” value ([2]; 140.0 mg/kg i.p., 90 min) was 43.6 ± 18.6%. For the same compound, the “consumption of oxygen (O2)” value ([2]; 140.0 mg/kg i.p., 120 min) was 49.3 ± 15.4%, the “consumption of oxygen (O2)” value ([2]; 140.0 mg/kg i.p., 180 min) was 78.9 ± 10.6% and the “consumption of oxygen (O2)” value ([2]; 140.0 mg/kg i.p., 240 min) was 88.8 ± 9.8%. The “consumption of oxygen (O2)” value ([2]; 140.0 mg/kg i.p., 300 min) was 105.3 ± 20.5%, the “consumption of oxygen (O2)” value ([2]; 190 mg/kg (1/2 LD16) i.p., 5 min) was 43% and the “consumption of oxygen (O2)” value ([2]; 190 mg/kg (1/2 LD16) i.p., 15 min) was 71.7%. The “consumption of oxygen (O2)” value ([2]; 190.0 mg/kg i.p., 0 min, hydrobromide) was 100% and 100 ± 27.8%, the “consumption of oxygen (O2)” value ([2]; 190.0 mg/kg i.p., 10 min) was 26.3 ± 9.8% and the “consumption of oxygen (O2)” value ([2]; 190.0 mg/kg i.p., 20 min) was 71.7 ± 4.1%. For the same compound, the “consumption of oxygen (O2)” value ([2]; 190.0 mg/kg i.p., 30 min) was 49.2%, the “consumption of oxygen (O2)” value ([2]; 190.0 mg/kg i.p., 60 min, hydrobromide) was 29.5% and 29.5 ± 15.0% and the “consumption of oxygen (O2)” value ([2]; 190.0 mg/kg i.p., 90 min, hydrobromide) was 47.5% and 47.5 ± 6.8%. The “consumption of oxygen (O2)” value ([2]; 190.0 mg/kg i.p., 120 min, hydrobromide) was 36.9% and 36.9 ± 22.8%, the “consumption of oxygen (O2)” value ([2]; 190.0 mg/kg i.p., 180 min, hydrobromide) was 55.3% and 55.3 ± 9.1% and the “consumption of oxygen (O2)” value ([2]; 190.0 mg/kg i.p., 240 min, hydrobromide) was 99.6% and 99.6 ± 11.2%. For the same compound, the “consumption of oxygen (O2)” value ([2]; 190.0 mg/kg i.p., 300 min, hydrobromide) was 151.6% and 151.6 ± 20.7%, the “consumption of oxygen (O2)” value ([2]; 279.0 mg/kg i.p., 0 min) was 100 ± 5.2% and the “consumption of oxygen (O2)” value ([2]; 279.0 mg/kg i.p., 10 min) was 32.6 ± 2.2%. For the same compound, the “consumption of oxygen (O2)” value ([2]; 279.0 mg/kg i.p., 20 min) was 26.7 ± 2.2%, the “consumption of oxygen (O2)” value ([2]; 279.0 mg/kg i.p., 30 min) was 20.7% and the “consumption of oxygen (O2)” value ([2]; 279.0 mg/kg i.p., 60 min) was 9.3 ± 5.1%. For the same compound, the “consumption of oxygen (O2)” value ([2]; 279.0 mg/kg i.p., 90 min) was 10.9 ± 5.5%, the “consumption of oxygen (O2)” value ([2]; 279.0 mg/kg i.p., 120 min) was 9.3 ± 5.9% and the “consumption of oxygen (O2)” value ([2]; 279.0 mg/kg i.p., 180 min) was 9.3 ± 4.0%. For the same compound, the “consumption of oxygen (O2)” value ([2]; 279.0 mg/kg i.p., 240 min) was 13.0 ± 8.7%, the “consumption of oxygen (O2)” value ([2]; 279.0 mg/kg i.p., 300 min) was 10.9 ± 1.0% and the “consumption of oxygen (O2)” value ([2]; 365.0 mg/kg i.p., 0 min) was 100 ± 4.7%. The “consumption of oxygen (O2)” value ([2]; 365.0 mg/kg i.p., 10 min) was 15.2 ± 3.1%, the “consumption of oxygen (O2)” value ([2]; 365.0 mg/kg i.p., 20 min) was 15.8 ± 5.0% and the “consumption of oxygen (O2)” value ([2]; 365.0 mg/kg i.p., 30 min) was 13.6%. For the same compound, the “consumption of oxygen (O2)” value ([2]; 365.0 mg/kg i.p., 60 min) was 13.3 ± 3.7%, the “consumption of oxygen (O2)” value ([2]; 365.0 mg/kg i.p., 90 min) was 13.1 ± 2.0% and the “consumption of oxygen (O2)” value ([2]; 365.0 mg/kg i.p., 120 min) was 17.0 ± 3.4%. The “consumption of oxygen (O2)” value ([2]; 365.0 mg/kg i.p., 180 min) was 11.2 ± 3.4%, the “consumption of oxygen (O2)” value ([2]; 365.0 mg/kg i.p., 240 min) was 8.2 ± 2.0% and the “consumption of oxygen (O2)” value ([2]; dose 36.5 mg/kg (1.06 mM/kg) i.p., 300 min) was 18.4 ± 2.0%.
